From article PMC12164071, “Lysine targeting covalent inhibitors of malarial kinase PfCLK3” (RSC Medicinal Chemistry, 2025)
Entries after “also recorded” stand apart in the source; their conditions may differ. Read-outs that look alike come from different tables or passages of the source.

Legend:
human (h)CLK2 = human (h)CLK2 (Homo sapiens, UniProt P49760); test: Selectivity kinase assay against hCLK2; assay type: biochemical; details: for IC50: errors SD, N ≥ 3
Source text: Given this work aims to target a conserved residue, selectivity must be derived from the reversible ligand rather than the covalent interaction.

[1] = Human cell viability assay (resazurin); details: HepG2, 48 hours, errors SD, N ≥ 3
Experimental: Cytotoxicity was assessed in HepG2 cells to complement the selectivity evaluations (Fig. 7). […]
Human cell viability assay.
Mycoplasma tested HepG2 cells were cultured in Dulbecco’s Modified Eagle Medium
(DMEM) with 10% fetal bovine serum, 1% non-essential AA, 1% sodium pyruvate, 1% Pen-
strep and 100ug/mL Normocin. Cultures were incubated at 37 ℃, 5% CO2. Cells were
detached using 0.05% trypsin-EDTA. 500nL of drug compound dilutions, in triplicate, were
added to 384-well, black, clear bottom assay plates using a Mosquito liquid handling
machine. Assay plates, containing compound dilutions, were seeded at 5,000 cells/well and
incubated for 48 hours. 40uM final concentration resazurin, diluted in DPBS, was added to
the assay plates which were then incubated for 4 hours and analysed using a ClariostarTM
plate reader to measure fluorescence Intensity (545-20nm/600-40nm). 3 control compounds
were included on every assay plate, Tamoxifen, Puromycin and TCMDC-135051. Maximum
signal control was obtained from wells with DMSO only and minimum signal control with
Tamoxifen 100uM. These were used to normalise data and give percentage inhibition of
metabolic activity. Experiments were performed N=3 and normalised data was grouped and a
nonlinear regression curve with four parameters was plotted using GraphPad Prism,
generating activity data. […]

[2] = tested on: 3D7 Plasmodium falciparum parasites; test: Ex vivo P. falciparum (3D7) inhibition assay; assay type: cell-based
Experimental: Compounds 4, 5, 8 and 9 were then assessed against 3D7 Plasmodium falciparum parasites (Fig. 6). […]
P. falciparum (3D7) culture and synchronisation.
P. falciparum cultures were maintained in RPMI-1640 media (Invitrogen) supplemented with 0.2% sodium bicarbonate, 0.5% Albumax II, 2.0 mM L-glutamine (Sigma) and 10 mg/L gentamycin. For continuous culture, the parasites were maintained at 4% haematocrit in human erythrocytes from 0+ blood donors and between 0.5 - 3% parasitaemia in an incubator at 37 °C, 5% carbon dioxide (CO 2), 5% oxygen (O 2) and 90% nitrogen (N 2). To obtain highly synchronous ring stage parasites for assays, cultures were double synchronised using Percoll and Sorbitol synchronisation. First, highly segmented schizonts were enriched by centrifugation on a 70% Percoll (GE Healthcare) cushion gradient. The Schizont pellet was collected and washed twice before fresh erythrocytes were added to a final haematocrit of 4%, and incubated for about 1-2 hours shaking continuously to allow merozoites egress and re-invasion of new erythrocytes. Residual schizonts were then removed by a second Percoll purification followed by treating the ring pellet with sorbitol to generate highly synchronous 1-2 hours old ring-stage parasites.
Ex vivo P. Falciparum (3D7) inhibition assay.
To determine the IC 50 of the molecules in parasites (P. falciparum 3D7) ex vivo, the molecules were diluted 1 in 3 from a starting concentration of 100 μM for 12 dilution points in triplicate. 50 μL of freshly diluted drugs, at twice the required final concentrations were aliquoted into black 96-well plates. To the compound plates, 50 μL of parasites prepared at 8% haematocrit at a parasitaemia (0.3 - 0.5%) were added and mixed by pipetting up and down several times giving a final culture volume of 100 μL at the required compound concentration (top concentration of 100 μM) and 4% haematocrit. To the ‘no compound’ control, growth media was added and uninfected erythrocytes were included on the plate as blank. The outer wells were filled with media to reduce evaporation from the experimental wells and the plates incubated for 72 hours (±2 hours) to allow the parasites sufficient time to re-invade before they are collected and frozen. For cellular washout studies, compound media was exchanged for compound-free media after 6 hours, and the parasites incubated for a […]

recombinant PfCLK3 = recombinant PfCLK3 (Plasmodium falciparum, UniProt Q8IIL5); test: TR-FRET kinase assay at Km ATP; assay type: biochemical; details: for IC50: 2 hour incubation, errors SD, N ≥ 3, * concentration response curve not complete; for kinase activity in words: Km ATP
Chain of recombinant PfCLK3 (Q8IIL5 entry or part of it): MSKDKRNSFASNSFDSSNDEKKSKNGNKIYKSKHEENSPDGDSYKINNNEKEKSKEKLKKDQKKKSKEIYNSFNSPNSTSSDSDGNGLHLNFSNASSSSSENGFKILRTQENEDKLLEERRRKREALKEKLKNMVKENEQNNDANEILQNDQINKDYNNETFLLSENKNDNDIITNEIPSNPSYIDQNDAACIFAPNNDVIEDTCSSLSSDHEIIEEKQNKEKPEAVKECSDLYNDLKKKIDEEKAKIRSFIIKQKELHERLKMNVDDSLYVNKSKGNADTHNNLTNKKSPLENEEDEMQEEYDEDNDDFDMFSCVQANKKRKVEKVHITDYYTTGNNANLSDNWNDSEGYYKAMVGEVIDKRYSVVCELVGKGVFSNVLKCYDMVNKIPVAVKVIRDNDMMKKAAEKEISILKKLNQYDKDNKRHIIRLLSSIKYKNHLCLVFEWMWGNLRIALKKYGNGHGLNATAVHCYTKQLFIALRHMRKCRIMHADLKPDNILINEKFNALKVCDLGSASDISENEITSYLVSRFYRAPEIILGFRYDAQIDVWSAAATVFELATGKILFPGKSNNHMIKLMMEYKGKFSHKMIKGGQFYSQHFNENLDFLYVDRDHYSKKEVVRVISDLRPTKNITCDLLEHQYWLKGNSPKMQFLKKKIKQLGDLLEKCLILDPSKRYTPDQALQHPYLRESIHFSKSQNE
Experimental: All compounds were then evaluated against recombinant PfCLK3 using a TR-FRET kinase assay (Fig. 5). […]
Time Resolved Förster Resonance Energy Transfer (TR-FRET) Assay
Tr-FRET technology was used to determine kinase activity and Km ATP before profiling compounds. An 11-point half-log serial dilution of each test compound was prepared in 100% DMSO at 100X final test concentration. The dilution series were dispensed onto assay plates with liquid handling machinery using positive displacement. The final DMSO concentration in the assay was 1%. To obtain IC 50 values, full length recombinant PfCLK3 was prepared in 1X assay buffer (50 mM Hepes, 10 mM MgCl2, 1 mM EGTA, 0.01% Tween20, 2 mM TCEP) at a 2X concentration and incubated with compounds for 15 minutes at room temperature before addition of ULight-labelled peptide substrate (MBP) with Km ATP (at 2X concentration). The reaction was centrifuged and incubated for 2 hr at 37 °C. To stop the reaction, 1X Lance detection buffer was added with 1 nM Eu-labelled anti-MBP and 10 mM EDTA, and the reaction was incubated in the dark for 2 hr at room temperature to allow detection to take place. Plate output was read on a Pherastar FSX and data analysed in Graphpad Prism to a 4-parameter curve fit. […]

[3] = tested on: PfCLK3 kinase domain (amino acid residues 334–699); test: Intact protein LC-MS for covalent adduct formation; assay type: binding, Plasmodium falciparum; details: for Relative Ratio, assignment apo / Relative Ratio, assignment holo (singly modified): compound 4 with C-terminal His-tag construct; for covalent adduct formation with PfCLK3 kinase domain: pH 7.4, 1:5 protein to compound ratio
Experimental: All compounds were then evaluated for covalent binding with PfCLK3 kinase domain (amino acid residues 334–699) using intact protein LC-MS (Fig. 3). Compounds were incubated at pH 7.4 in a 1 : 5 protein to compound ratio and analysed for covalent adduct formation using ESI TOF. […] Compounds 8 and 9 yielded a fully modified species at 43 957 Da, which can be attributed to the mass of the apo protein + the mass of the pyridinium product adduct. A minor mass (20–25%) of 44 378 Da was also detected, consistent with a doubly modified PfCLK3 kinase domain. This implies that cross reactivity with non-catalytic lysine residues is possible using the ethynyl benzaldehyde functionality, although a minor product. […]
dialyzing the protein into a final buffer containing 20 mM HEPES pH 7.4, 150 mM NaCl, 1 […]
PfCLK3 kinase domain (residues 334–699 with a C-terminal TEV cleavage sequence and His6-tag) was cloned into pFastBac vector and expressed and purified from Sf21 insect cells.
Cells were infected using P2 BIICs at an MOI of 0.2 and left to express for 72 h. Harvested cells were lysed and centrifuged before purifying using IMAC and SEC in a final buffer containing 20 mM HEPES pH 7.4, 150 mM NaCl, 1 mM TCEP, and 1 mM MgCl2.
Protein Mass Spectrometry
For intact protein mass spectrometry, compounds were incubated with a 5-fold excess of compound in buffer containing 20 mM HEPES pH 7.4, 150 mM NaCl, 1 mM TCEP, and 1 mM MgCl 2. 5 μL of kinase domain (1 mg/mL) was added to 25 μL of buffer before 0.12 μL of compound in a 10 mM DMSO stock was added to start the incubation. Samples were incubated at room temperature for 4 hours before 10 μL alliquots were analysed by LC-MS.
Intact protein LC-MS experiments were performed on a Synapt G2 Q-ToF instrument equipped with electrospray ionisation (Waters Corp., Manchester, UK). LC separation was achieved using an Acquity UPLC equipped with a reverse phase C4 Aeris Widepore 50 × 2.1 mm HPLC column (Phenomenex, CA, USA) and a gradient of 5–95% acetonitrile (0.1% formic acid) over 10 minutes was employed. Data analysis was performed using MassLynx v4.1 and deconvolution was performed using MaxEnt. […]

[4] = pH 7.4, 1:5 protein to compound, 4 hours room temperature
[5] = 3D7, Pf3D7 parasites, 72 hours, errors SD, N ≥ 3, read-out: EC50 (3D7)
[6] = 3D7, Pf3D7 parasites, 72 hours, errors SD, N ≥ 3, read-out: pEC50 (3D7) (converted)

Chain of human (h)CLK2 (P49760 whole entry): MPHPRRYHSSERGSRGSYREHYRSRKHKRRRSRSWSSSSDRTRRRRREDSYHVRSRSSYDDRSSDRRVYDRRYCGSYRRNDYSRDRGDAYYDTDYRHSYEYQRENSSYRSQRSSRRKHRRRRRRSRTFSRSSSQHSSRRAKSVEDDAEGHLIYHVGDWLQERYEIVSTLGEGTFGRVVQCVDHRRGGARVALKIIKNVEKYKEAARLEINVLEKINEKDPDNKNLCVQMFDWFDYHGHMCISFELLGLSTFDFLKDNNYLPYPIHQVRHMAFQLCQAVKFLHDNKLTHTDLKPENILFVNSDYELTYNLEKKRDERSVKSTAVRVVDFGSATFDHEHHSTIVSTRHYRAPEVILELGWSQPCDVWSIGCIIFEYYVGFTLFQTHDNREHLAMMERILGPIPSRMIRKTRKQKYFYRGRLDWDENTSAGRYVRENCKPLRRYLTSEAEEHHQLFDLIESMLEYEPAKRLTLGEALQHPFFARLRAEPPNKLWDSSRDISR

Row | SMILES | CC50 at 48 h ([1]; CC50 (HepG2)) | CC50 at 48 h ([1]; pCC50 (HepG2)) | IC50 (recombinant PfCLK3; IC50 (apparent), Km ATP (5 μM)) | IC50 (recombinant PfCLK3; pIC50, Km ATP (5 μM)) | Relative Ratio, assignment apo [3, 4] | covalent adduct formation with PfCLK3 kinase domain [3] | further results
1 | CCN(CC)Cc1ccc(OC)c(-c2cc3c(-c4ccc(C(=O)O)c(C(C)C)c4)ccnc3[nH]2)c1 [Compound 1, TCMDC-135051, reference compound] | 2.75 ± 0.58 µM | 2.75 µM | 0.017 ± 0.003 µM | 0.0174 µM |  |  | IC50 (human (h)CLK2; IC50 (hCLK2)): 0.879 ± 0.325 µM; IC50 (human (h)CLK2; pIC50 (hCLK2)): 0.891 µM; EC50 ([2]; 3D7, 72 h, read-out: EC50 (3D7)): 0.266 ± 0.011 µM; EC50 ([2]; 3D7, 72 h, read-out: pEC50 (3D7) (converted)): 0.263 µM
2 | CCN(CC)Cc1ccc(OC)c(-c2cc3c(-c4ccc(S(=O)(=O)F)cc4)ccnc3[nH]2)c1 [Compound 2] |  |  | 0.083 ± 0.01 µM | 0.0832 µM | 100 |  | 
3 | CCN(CC)Cc1ccc(OC)c(-c2cnc3[nH]cc(-c4ccc(S(=O)(=O)F)cc4)c3c2)c1 [Compound 3] |  |  | 0.302 ± 0.033 µM | 0.302 µM | 100 |  | 
4 | CCN(CC)Cc1ccc(OC)c(-c2cnc3[nH]cc(-c4ccc(O)c(C=O)c4)c3c2)c1 [Compound 5] | 4.74 ± 3.18 µM | 2.69 µM | 0.019 ± 0.01 µM | 0.0195 µM | 68 | showed covalent adduct formation; also recorded: formed a covalent adduct with PfCLK3 | IC50 (human (h)CLK2; read-out: pIC50 (hCLK2) (converted)): 0.011 µM; fold more potent against hCLK2 than parent S1 (human (h)CLK2; relative to S1): 20 fold; EC50 [2, 5]: 3.26 ± 1.67 µM; EC50 [2, 6]: 3.24 µM; partial covalent bond formation, modification ([3]; imine adduct): 32–60%; Relative Ratio, assignment holo (singly modified) [3, 4]: 32
5 | CCN(CC)Cc1ccc(OC)c(-c2cc3c(-c4ccc(C=O)c(O)c4)ccnc3[nH]2)c1 [Compound 6] |  |  | 0.155 ± 0.019 µM | 0.155 µM | 100 | unable to covalently bind the protein | 
6 | CCN(CC)Cc1ccc(OC)c(-c2cnc3[nH]cc(-c4ccc(C=O)c(O)c4)c3c2)c1 [Compound 7] |  |  | 0.083 ± 0.042 µM | 0.0832 µM | 100 | unable to covalently bind the protein | 
7 | C#Cc1ccc(-c2ccnc3[nH]c(-c4cc(CN(CC)CC)ccc4OC)cc23)cc1C=O [Compound 8] | 12.3 ± 2.53 µM | 12.3 µM | 0.029 ± 0.003 µM | 0.0288 µM |  | showed covalent adduct formation; also recorded: formed a covalent adduct with PfCLK3 | IC50 (human (h)CLK2; read-out: IC50 (hCLK2)): 0.069 ± 0.031 µM; EC50 [2, 5]: 2.27 ± 2.89 µM; EC50 [2, 6]: 2.29 µM; doubly modified PfCLK3 kinase domain, minor mass abundance ([3]; 44 378 Da species): 20–25%; Relative Ratio, assignment holo (doubly modified) [3, 4]: 25; Relative Ratio, assignment holo (singly modified) [3, 4]: 75
8 | C=CS(=O)(=O)Nc1ccc(-c2c[nH]c3ncc(-c4cc(CN(CC)CC)ccc4OC)cc23)cc1 [Compound 11] |  |  | 0.892 µM | 0.891 µM |  |  | kinase activity in words (recombinant PfCLK3): poorly active, not reaching 100% inhibition at the highest concentration tested
9 | C=CC(=O)Nc1ccc(-c2ccnc3[nH]c(-c4cc(CN(CC)CC)ccc4OC)cc23)cc1 [Compound 12] |  |  |  |  | 100 |  | 
10 | C=CC(=O)Nc1ccc(-c2c[nH]c3ncc(-c4cc(CN(CC)CC)ccc4OC)cc23)cc1 [Compound 13] |  |  | 1.95 µM | 2 µM | 100 |  | kinase activity in words (recombinant PfCLK3): significantly lower activity than all other analogues
